Results taken from patent US6537566B1, “Compositions and methods for the non-invasive treatment of uterine fibroid cells” (priority 1999, dated 2003).
pIC50: −log10 of the molar value. Where two headings read alike, the source gives them in different places.

Tests used:
Format in all cases: cell-based, human
[1] = system: uterine fibroid leiomyoma cells; test: DNA content experiment similar to Example 1, GF109203x versus α-tocopherol succinate, 6 days (FIGS. 5A & 5B); settings: comparison of FIG. 5A with 5B; DNA content at time=6 days
Description: (§1) Method: Fibroid tissue was obtained from patients undergoing hysterectomy for symptomatic leiomyomata, and leiomyoma cells were isolated from the tissue using standard techniques. Leiomyoma cells in 5% fetal calf serum were plated at 22,000 cells/well in 12-well plate. Cells were allowed to acclimate and grow for 24 hours before the start of the experiment. At time=0, the DNA content of the wells was determined (32+/−0.6 ng/well), and the cells were treated with different concentrations of the FGI agents as shown in FIG. 3A in 5% fetal calf serum. Controls received fetal calf serum alone. After treatment at time=4 days, the DNA content of each well was determined using standard methods. All points were determined in triplicate and are the mean +/− standard error.
Clearly from Examples 1 & 2, tocopherol related substrates are potential FGI agents. This was expected because of tocopherol's effect on the PKC pathway. However, non-tocopherol related substrates that can appropriate appropriately effect the PKC pathway were also identified as potential FGI agents. Therefore, GF109203x, a protein kinase C inhibitor, was tested in an experiment similar to that of Example 1 to determine the efficacy of a non-tocopherol related, identified potential FGI agent to inhibit fibroid leiomyoma cell proliferation. Here, the DNA content of treated wells was determined at time=6 days. […]

[2] = system: uterine fibroid leiomyoma cells; test: Growth of leiomyoma cells with low added concentrations over background tocopherols (Example 2); settings: added concentrations ranging from 1 to 5 μM over background tocopherols (about 10 μM); 4 days
Description: as §1
Method: See Example 1 above generally. Vitamin C, an antioxidant that is not an identified potential FGI agent, was used as an experimental substrate control.
Results: The results are illustrated in FIGS. 4A and 4B. The DNA concentration of controls at time=4 days was 99+/−0.2 ng/well (the “0” concentration in FIGS. 4A & 4B). Growth of uterine fibroid cells clearly occurred in the presence of a background concentration of tocopherols. […] However, upon the addition of 10 μM over back ground tocopherol treated wells began to show detectable inhibition of the growth of uterine fibroid cell populations.

[3] = system: uterine fibroid leiomyoma cells; test: DNA content assay of growing leiomyoma cells treated with FGI agents (Example 1, 4 days); settings: for pIC50: read-out: IC50 (= 80 ng) Concentration; for NG0 (= 32 ng) Concentration (no net growth): concentration giving the time=0 DNA content of 32 ng/well
Excerpt: A DNA assay was used for determining the effect of potential FGI agents on the growth of uterine fibroid leiomyoma cells. The assay determined the effect of various concentrations of an individual FGI agent on the accumulation of DNA in an actively growing population of uterine fibroid leiomyoma cells. The accumulation of DNA in treated cell populations relative to untreated controls was an indication the efficacy of the FGI agent for inhibiting fibroid cell proliferation.
as §1
The significance of the IC50 point was that it represented an estimated point relative to which a substrate may in part be gauged as an effective FGI agent. The NG0 (no net growth) was the point on the graph corresponding to the time=0 or starting DNA content of the wells.

[4] = system: uterine fibroid leiomyoma cells; test: Separate DNA content experiment under conditions similar to Example 1, read at 6 days (FIG. 3B); settings: DNA content determined at time=6 days
Description: as §1
FIG. 3B is a graph of the results for α-tocopherol succinate from a separate experiment under conditions similar to Example 1. Here, the DNA content of treated wells was determined at time=6 days. The area under the horizontal line indicates the concentration at which net cell death occurred in this experiment (˜38 μM).

[5] = increase in DNA content 50% of that of control wells, time=4 days, 5% fetal calf serum, N/A = condition not attained
[6] = time=4 days, 5% fetal calf serum, N/A = condition not attained
[7] = Homo sapiens, 96 h, increase in DNA content 50% of that of control wells, time=4 days, 5% fetal calf serum, N/A = condition not attained

SMILES	growth of uterine fibroid cell populations at low added concentrations [2]	NG0 (= 32 ng) Concentration (no net growth) [3, 6] [µM]	further results
CN(C)CCCn1cc(C2=C(c3c[nH]c4ccccc34)C(=O)NC2=O)c2ccccc21 [GF109203x]			efficiency at inhibiting fibroid leiomyoma cell proliferation relative to α-tocopherol succinate [1]: ~5 time
Cc1c(C)c2c(c(C)c1O)CC[C@@](C)(CCC[C@H](C)CCC[C@H](C)CCCC(C)C)O2 [α-Tocopherol]	substantially uninhibited		pIC50 [3, 5]: 4.57
Cc1c(C)c2c(c(C)c1OC(=O)CCC(=O)O)CC[C@@](C)(CCC[C@H](C)CCC[C@H](C)CCCC(C)C)O2 [α-Tocopherol succinate]	substantially uninhibited	38	pIC50 [3, 5]: 4.66; concentration at which net cell death occurred [4]: ~38 µM
Cc1c(C)c2c(c(C)c1O)CCC(C)(COc1ccc(CC3SC(=O)NC3=O)cc1)O2 (centres unmarked) [Troglitazone]		50	pIC50 [3, 7]: 4.92
Cc1cc(O)c(C)c2c1O[C@](C)(CCC[C@H](C)CCC[C@H](C)CCCC(C)C)CC2 [β-Tocopherol]	substantially uninhibited		
CN(CCOc1ccc(CC2SC(=O)NC2=O)cc1)c1ccccn1 (centres unmarked) [Rosiglitazone]		90	pIC50 ([3]; Homo sapiens, 96 h): 4.40
CCc1ccc(CCOc2ccc(CC3SC(=O)NC3=O)cc2)nc1 (centres unmarked) [Pioglitazone]		88	pIC50 [3, 7]: 4.40
